This is an account of results in ChEMBL document CHEMBL1201862, “PubChem BioAssay data set” (2004).

What all share (assay type): functional
Assay [1] has as its target T1, Serine/threonine-protein kinase D3 (Homo sapiens, UniProt O94806).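 Further: determined within a kinase panel screen, with PRKCN as the panel member.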
T1 sequence (O94806 whole entry): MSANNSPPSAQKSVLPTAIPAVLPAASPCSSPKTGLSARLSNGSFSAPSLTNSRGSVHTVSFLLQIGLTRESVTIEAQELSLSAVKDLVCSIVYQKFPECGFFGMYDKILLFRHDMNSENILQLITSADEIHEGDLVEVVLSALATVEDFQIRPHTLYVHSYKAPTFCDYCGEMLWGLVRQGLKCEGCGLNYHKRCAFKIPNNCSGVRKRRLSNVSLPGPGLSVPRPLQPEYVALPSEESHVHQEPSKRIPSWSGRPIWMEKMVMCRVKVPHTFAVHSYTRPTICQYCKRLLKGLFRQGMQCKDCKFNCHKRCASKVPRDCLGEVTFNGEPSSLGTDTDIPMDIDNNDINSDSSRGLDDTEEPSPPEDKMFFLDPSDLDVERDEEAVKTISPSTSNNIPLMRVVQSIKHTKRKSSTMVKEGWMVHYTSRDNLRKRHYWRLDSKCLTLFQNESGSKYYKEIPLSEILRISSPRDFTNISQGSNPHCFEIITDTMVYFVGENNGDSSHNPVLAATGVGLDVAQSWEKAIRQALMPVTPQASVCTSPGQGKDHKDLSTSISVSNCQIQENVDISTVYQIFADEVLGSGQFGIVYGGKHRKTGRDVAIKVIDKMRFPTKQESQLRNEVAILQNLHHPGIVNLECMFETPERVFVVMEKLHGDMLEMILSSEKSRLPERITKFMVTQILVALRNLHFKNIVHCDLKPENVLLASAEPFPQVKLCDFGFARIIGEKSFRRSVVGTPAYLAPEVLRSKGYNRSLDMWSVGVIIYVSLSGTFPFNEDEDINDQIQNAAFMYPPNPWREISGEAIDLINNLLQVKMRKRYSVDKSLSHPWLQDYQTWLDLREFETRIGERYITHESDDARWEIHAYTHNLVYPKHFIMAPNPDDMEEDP

Assay [2] concerns the target Serine/threonine-protein kinase pim-1 (Homo sapiens, UniProt P11309).
The target of assay [3] is Tyrosine-protein kinase Fyn (Homo sapiens, UniProt P06241).
Assay [4] has as its target LIM domain kinase 1 (Homo sapiens, UniProt P53667). In words: Navigating the Kinome. Panel member name: LIMK1.
For assay [5], the target named is Dual specificity protein kinase CLK4 (Homo sapiens, UniProt Q9HAZ1).
The target in assay [6] is ALK tyrosine kinase receptor (Homo sapiens, UniProt Q9UM73).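 Further: ALK tested as one member of a kinase panel screen.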
The target of assay [7] is Serine/threonine-protein kinase PAK 4 (Homo sapiens, UniProt O96013).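 Further: value obtained within a kinome profiling panel in which PAK4 was one of the panel members.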
The target in assay [8] is Mitogen-activated protein kinase 8 (Homo sapiens, UniProt P45983).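 Further: value comes from one member of a kinome-wide kinase profiling panel.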
Assay [9] deals with Tyrosine-protein kinase BTK (Homo sapiens, UniProt Q06187).
For assay [10], the target named is Death-associated protein kinase 3 (Homo sapiens, UniProt O43293).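 Further: measured as one member of a kinome-wide profiling panel.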
Assay [11] has as its target Cyclin-dependent kinase 8 (Homo sapiens, UniProt P49336). In words: Navigating the Kinome. Panel member name: CDK8.
Assay [12] addresses Rho-associated protein kinase 1 (Homo sapiens, UniProt Q13464).
Assay [13] deals with T2, Tyrosine-protein kinase JAK3 (Homo sapiens, UniProt P52333).
T2 sequence (P52333 whole entry): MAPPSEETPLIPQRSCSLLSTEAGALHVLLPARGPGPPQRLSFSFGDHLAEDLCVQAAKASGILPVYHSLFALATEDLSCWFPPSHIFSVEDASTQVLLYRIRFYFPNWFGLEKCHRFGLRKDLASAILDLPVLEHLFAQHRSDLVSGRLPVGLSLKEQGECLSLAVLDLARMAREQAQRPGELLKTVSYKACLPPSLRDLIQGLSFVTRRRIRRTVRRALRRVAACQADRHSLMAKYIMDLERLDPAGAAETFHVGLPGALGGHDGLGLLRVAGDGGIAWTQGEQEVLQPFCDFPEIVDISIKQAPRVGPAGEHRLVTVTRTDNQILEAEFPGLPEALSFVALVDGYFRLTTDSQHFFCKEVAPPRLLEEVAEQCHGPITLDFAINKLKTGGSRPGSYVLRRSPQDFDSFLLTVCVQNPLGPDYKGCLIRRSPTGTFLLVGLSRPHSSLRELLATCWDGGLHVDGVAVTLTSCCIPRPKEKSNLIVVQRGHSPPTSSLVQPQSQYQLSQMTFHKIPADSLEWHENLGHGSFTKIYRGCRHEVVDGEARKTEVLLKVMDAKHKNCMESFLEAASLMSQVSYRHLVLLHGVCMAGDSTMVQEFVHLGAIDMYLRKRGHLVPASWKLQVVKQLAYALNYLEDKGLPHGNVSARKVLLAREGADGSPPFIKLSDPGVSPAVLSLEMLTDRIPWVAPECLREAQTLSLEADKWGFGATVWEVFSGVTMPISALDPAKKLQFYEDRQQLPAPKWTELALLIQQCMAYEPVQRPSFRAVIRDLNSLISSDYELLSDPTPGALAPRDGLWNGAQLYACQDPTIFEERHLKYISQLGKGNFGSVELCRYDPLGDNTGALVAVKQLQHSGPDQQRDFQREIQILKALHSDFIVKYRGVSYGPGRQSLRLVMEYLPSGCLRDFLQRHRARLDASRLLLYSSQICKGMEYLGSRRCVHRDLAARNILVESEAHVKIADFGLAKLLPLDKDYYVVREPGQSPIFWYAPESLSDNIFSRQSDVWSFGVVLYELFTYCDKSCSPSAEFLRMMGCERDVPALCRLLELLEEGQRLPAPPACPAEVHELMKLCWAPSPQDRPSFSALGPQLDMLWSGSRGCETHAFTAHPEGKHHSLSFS

Activity calls are given as the source filed them.

Tyrosine-protein kinase BTK, sequence (Q06187 whole entry): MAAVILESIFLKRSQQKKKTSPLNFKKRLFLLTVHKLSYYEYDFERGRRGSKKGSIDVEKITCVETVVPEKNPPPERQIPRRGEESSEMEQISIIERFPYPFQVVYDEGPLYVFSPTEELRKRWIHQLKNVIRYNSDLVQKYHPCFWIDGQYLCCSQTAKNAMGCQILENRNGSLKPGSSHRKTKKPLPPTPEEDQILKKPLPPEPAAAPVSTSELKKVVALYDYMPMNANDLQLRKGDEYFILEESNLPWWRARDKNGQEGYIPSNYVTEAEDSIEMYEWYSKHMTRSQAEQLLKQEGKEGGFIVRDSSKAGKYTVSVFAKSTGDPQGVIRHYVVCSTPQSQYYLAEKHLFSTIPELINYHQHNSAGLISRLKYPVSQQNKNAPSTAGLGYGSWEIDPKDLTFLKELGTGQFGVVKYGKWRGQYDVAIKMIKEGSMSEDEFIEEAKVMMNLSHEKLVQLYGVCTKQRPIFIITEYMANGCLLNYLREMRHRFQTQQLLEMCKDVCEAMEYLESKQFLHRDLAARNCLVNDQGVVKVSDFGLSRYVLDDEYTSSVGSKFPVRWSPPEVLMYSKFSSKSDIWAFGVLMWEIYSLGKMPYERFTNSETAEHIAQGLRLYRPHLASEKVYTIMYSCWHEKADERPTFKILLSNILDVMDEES
Mitogen-activated protein kinase 8, sequence (P45983 whole entry): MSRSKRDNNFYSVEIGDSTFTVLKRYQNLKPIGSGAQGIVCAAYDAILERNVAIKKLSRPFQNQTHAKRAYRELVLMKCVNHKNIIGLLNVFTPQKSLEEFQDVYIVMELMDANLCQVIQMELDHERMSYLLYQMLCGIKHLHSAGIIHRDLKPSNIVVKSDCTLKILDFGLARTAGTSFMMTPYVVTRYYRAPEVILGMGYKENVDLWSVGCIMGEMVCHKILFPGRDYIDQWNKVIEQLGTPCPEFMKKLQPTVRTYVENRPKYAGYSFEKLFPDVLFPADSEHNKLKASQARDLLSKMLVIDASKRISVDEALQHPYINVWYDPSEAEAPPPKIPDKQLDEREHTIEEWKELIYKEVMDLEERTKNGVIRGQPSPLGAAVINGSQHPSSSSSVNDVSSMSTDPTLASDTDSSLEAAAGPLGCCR
Serine/threonine-protein kinase PAK 4, sequence (O96013 whole entry): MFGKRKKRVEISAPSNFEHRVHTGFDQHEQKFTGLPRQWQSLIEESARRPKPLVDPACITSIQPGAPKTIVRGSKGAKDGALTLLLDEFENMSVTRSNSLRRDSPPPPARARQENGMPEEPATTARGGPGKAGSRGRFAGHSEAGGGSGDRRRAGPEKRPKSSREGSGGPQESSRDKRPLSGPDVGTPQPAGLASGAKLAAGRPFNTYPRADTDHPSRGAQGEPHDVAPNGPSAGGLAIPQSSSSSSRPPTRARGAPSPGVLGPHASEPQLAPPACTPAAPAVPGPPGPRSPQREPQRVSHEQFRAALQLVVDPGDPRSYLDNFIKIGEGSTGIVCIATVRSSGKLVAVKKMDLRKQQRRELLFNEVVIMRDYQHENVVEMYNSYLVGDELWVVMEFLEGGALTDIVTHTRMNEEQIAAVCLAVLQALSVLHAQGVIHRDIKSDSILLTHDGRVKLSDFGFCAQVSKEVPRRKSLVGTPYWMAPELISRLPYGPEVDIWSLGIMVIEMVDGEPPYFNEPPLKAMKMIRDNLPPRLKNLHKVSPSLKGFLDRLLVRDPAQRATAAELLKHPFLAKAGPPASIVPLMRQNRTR
Tyrosine-protein kinase Fyn, sequence (P06241 whole entry, the tested form may be a part): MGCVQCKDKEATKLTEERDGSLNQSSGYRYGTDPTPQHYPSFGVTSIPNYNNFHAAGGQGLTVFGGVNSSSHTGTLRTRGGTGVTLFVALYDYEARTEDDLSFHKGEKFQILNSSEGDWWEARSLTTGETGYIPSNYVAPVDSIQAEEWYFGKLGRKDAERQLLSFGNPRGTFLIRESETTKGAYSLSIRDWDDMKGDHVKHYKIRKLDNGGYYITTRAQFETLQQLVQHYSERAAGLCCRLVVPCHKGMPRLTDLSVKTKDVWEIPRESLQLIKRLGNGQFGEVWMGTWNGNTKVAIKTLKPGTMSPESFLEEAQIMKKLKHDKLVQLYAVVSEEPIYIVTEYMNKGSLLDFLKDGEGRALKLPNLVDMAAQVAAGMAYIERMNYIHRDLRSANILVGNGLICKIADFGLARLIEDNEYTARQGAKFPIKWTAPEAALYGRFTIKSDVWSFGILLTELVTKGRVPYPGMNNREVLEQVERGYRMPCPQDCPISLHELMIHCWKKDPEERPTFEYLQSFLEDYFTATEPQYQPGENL
LIM domain kinase 1, sequence (P53667 whole entry, the tested form may be a part): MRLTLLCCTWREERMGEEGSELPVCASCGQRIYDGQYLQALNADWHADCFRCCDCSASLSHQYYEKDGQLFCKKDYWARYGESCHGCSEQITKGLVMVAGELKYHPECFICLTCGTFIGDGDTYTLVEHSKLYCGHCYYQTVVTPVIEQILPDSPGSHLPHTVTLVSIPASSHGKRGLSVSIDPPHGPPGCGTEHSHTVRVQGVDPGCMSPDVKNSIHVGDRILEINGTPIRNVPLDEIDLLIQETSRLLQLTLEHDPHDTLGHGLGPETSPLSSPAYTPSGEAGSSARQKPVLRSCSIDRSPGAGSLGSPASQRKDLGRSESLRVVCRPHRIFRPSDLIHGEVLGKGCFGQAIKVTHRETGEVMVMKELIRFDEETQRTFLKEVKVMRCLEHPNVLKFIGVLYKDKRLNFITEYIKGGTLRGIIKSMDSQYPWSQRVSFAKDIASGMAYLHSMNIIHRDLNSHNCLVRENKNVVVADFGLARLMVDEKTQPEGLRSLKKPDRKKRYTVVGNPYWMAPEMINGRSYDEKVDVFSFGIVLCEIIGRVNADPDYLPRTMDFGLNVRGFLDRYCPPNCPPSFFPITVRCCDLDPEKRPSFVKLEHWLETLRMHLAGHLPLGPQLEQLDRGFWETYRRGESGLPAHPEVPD
Cyclin-dependent kinase 8, sequence (P49336 whole entry): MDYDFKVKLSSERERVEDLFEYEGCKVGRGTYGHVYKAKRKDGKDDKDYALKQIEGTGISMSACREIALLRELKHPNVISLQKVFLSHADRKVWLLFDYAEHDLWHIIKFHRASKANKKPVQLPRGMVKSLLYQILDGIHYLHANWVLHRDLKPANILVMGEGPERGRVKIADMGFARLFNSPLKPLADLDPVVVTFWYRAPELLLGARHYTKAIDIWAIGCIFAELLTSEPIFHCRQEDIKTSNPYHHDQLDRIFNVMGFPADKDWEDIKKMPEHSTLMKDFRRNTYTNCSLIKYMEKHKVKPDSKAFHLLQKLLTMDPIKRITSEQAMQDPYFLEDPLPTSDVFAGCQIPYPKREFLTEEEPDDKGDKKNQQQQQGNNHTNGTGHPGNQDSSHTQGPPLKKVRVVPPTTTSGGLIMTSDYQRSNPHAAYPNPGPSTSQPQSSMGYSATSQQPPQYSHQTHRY
Serine/threonine-protein kinase pim-1, sequence (P11309 whole entry): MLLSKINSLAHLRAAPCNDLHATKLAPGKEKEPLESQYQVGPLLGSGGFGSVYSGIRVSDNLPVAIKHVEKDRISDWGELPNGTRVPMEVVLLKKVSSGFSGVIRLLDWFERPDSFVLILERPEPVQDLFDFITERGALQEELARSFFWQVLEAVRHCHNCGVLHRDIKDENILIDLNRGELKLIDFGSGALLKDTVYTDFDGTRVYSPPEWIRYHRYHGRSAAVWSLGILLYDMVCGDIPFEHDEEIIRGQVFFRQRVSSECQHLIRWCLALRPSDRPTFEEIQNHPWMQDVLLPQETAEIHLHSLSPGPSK
Dual specificity protein kinase CLK4, sequence (Q9HAZ1 whole entry): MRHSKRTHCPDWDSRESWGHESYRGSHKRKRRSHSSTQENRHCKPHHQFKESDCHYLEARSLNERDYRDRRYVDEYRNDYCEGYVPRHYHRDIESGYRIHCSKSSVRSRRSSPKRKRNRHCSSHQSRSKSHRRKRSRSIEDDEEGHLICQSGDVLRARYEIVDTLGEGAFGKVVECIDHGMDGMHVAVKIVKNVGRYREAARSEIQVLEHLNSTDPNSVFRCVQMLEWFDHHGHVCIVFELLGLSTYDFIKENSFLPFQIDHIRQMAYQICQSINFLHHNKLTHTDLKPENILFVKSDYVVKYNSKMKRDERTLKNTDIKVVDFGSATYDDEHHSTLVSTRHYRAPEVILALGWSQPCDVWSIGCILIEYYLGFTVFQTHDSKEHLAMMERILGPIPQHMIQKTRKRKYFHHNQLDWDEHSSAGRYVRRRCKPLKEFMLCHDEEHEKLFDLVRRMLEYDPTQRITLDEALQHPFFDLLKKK
Death-associated protein kinase 3, sequence (O43293 whole entry): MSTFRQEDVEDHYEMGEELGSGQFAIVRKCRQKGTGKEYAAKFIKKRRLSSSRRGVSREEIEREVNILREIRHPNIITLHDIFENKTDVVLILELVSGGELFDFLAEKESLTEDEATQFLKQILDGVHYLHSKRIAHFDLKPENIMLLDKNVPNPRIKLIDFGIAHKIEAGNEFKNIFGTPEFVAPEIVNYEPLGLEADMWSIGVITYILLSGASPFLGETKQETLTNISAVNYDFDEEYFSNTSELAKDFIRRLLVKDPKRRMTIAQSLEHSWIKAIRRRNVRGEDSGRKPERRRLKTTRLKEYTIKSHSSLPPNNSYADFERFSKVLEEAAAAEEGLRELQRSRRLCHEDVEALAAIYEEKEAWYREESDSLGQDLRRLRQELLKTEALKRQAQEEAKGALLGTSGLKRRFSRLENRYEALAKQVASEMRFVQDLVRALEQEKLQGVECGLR

Turning to `O=C(Nc1n[nH]c2ccc(-c3cn(Cc4ccccc4)nn3)cc12)c1cc(F)ccc1F`, the Ki in [1] is > 3.98 µM (inactive); in [2], 3.98 µM (active); in assay [3], > 6.31 µM (inactive); in [4], > 3.16 µM (inactive); in [5], 0.01 µM (active); in [6], > 6.31 µM (inactive). In addition, the Ki was 3.16 µM (active) in [7]; 0.501 µM (active) in assay [8]; > 6.31 µM (inactive) in [9]; 0.0501 µM (active) in assay [10]; > 3.98 µM (inactive) in assay [11]; > 2 µM (inactive) in assay [12]. The Ki in [13] is > 5.01 µM (inactive).
Take `CS(=O)(=O)Nc1ccc(Nc2ccc3[nH]nc(N)c3c2)cc1`: the Ki in assay [1] was 3.16 µM (active); in assay [2] it was > 6.31 µM (inactive); in [3], > 6.31 µM (inactive); in assay [4] it was 0.501 µM (active); in assay [5], 0.501 µM (active); in assay [6], > 6.31 µM (inactive). Also, the Ki in assay [7] is > 5.01 µM (inactive); in assay [8], > 5.01 µM (inactive); in assay [9], > 6.31 µM (inactive); in assay [10], > 5.01 µM (inactive); in assay [11] it was 2.51 µM (active); in [12], 1.58 µM (active). Moreover, the Ki in assay [13] was > 5.01 µM (inactive).
As for `CS(=O)(=O)N(Cc1ccc2[nH]c(=O)c3cccn3c2c1)C1CC1`, the Ki is > 2 µM (inactive) in [1]; > 5.01 µM (inactive) in [2]; > 3.16 µM (inactive) in [3]; > 3.16 µM (inactive) in assay [4]; > 6.31 µM (inactive) in [5]; > 3.16 µM (inactive) in [6]. The Ki in assay [7] was > 3.16 µM (inactive); in assay [8], > 3.16 µM (inactive); in assay [9], > 3.16 µM (inactive); in [10], > 3.16 µM (inactive); in assay [11] it was > 3.98 µM (inactive); in assay [12] it was > 6.31 µM (inactive). Besides, in assay [13], the Ki is > 2.51 µM (inactive).
